Type in all cases: in vivo
The subject of one test is Botrytis cinerea. As to the kind of experiment: Test A: tomato seedlings sprayed with test suspension, inoculated with Botrytis cinerea (gray mold), visual disease rating. The text has this: General protocol for preparing test suspensions for Tests A-E: the test compounds were first dissolved in acetone in an amount equal to 3% of the final volume and then suspended at the desired concentration (in ppm) in acetone and purified water (50/50 mix by volume) containing 250 ppm of the surfactant Trem® 014 (polyhydric alcohol esters). The resulting test suspensions were then used in Tests A-E. Samples were applied to plants at either a 10 ppm (**), 40 ppm, 50 ppm (*) or 200 ppm (#) test solution to the point of run-off on the test plants with the equivalent of a rate of 40 g ai/ha, 160 g ai/ha, 200 g ai/ha, or 800 g ai/ha, respectively.
The test suspension was sprayed to the point of run-off on tomato seedlings. The following day the seedlings were inoculated with a spore suspension of Botrytis cinerea (the causal agent of gray mold on many crops) and incubated in a saturated atmosphere at 20° C. for 48 h, and moved to a growth chamber at 27° C. for 2 days, after which time visual disease ratings were made.
Results for Tests A-E are given in Table A. In the Table, a rating of 100 indicates 100% disease control and a rating of 0 indicates no disease control (relative to the controls). A dash (-) indicates no test results.

Test [1] deals with Stagonospora nodorum (also known as Septoria nodorum). In words: Test B: wheat seedlings sprayed with test suspension, inoculated with Stagonospora nodorum (wheat glume blotch), visual disease rating. In a few lines: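 Compounds in acetone/water 50/50 with 250 ppm Trem 014 were sprayed to run-off on wheat seedlings at 10, 40, 50 or 200 ppm (40–800 g ai/ha). Plants were inoculated next day, held 48 h saturated at 20 °C, then 6 days in a growth chamber at 20 °C. Visual rating 0–100% disease control relative to controls.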

The next test has as its system Septoria tritici. As to the kind of experiment: Test C: wheat seedlings sprayed with test suspension, inoculated with Septoria tritici (wheat leaf blotch), visual disease rating. The procedure, abridged: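 Wheat seedlings sprayed to run-off with compound suspended in acetone/water with 250 ppm Trem 014, at 10, 40, 50 or 200 ppm (40–800 g ai/ha). Inoculated with Septoria tritici spores the next day, held 48 h saturated at 24 °C, then 21 days at 20 °C. Visual rating 0–100% disease control relative to controls.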

Test [2] relates to Puccinia recondite f. sp. tritici. As to the kind of experiment: Test D: wheat seedlings sprayed with test suspension, inoculated with Puccinia recondite f. sp. tritici (wheat leaf rust), visual disease rating. In a few lines:
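Wheat seedlings were sprayed to run-off with compound suspended in 50/50 acetone–water containing 250 ppm Trem 014, at 10-200 ppm (40-800 g ai/ha). They were inoculated with rust spores the next day, then kept 24 h saturated at 20 °C and 6 days at 20 °C. Scores are visual % disease control versus untreated controls.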

In test [3] the test system is Erysiphe graminis f. sp. tritici. As to the kind of experiment: Test E: wheat seedlings sprayed with test suspension, inoculated with Erysiphe graminis f. sp. tritici (wheat powdery mildew), visual disease rating. The procedure, abridged:
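Wheat seedlings sprayed to run-off with compound suspension (acetone 3%, acetone/water 50/50 with 250 ppm Trem 014) at 10, 40, 50 or 200 ppm (40–800 g ai/ha), inoculated next day with spore dust. Incubated 7 or 8 days at 20° C, then rated visually as % disease control relative to controls (0–100).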

[4] abbreviates: Cmpd. No. marked '#' (other test rate; meaning of mark not shown).
The mark [5] stands for this setting: Cmpd. No. unmarked, 100 = 100% disease control, 0 = no control relative to controls.

The values below come from patent US10098350B2, “Fungicidal amides” (E. I. DU PONT DE NEMOURS AND COMPANY, priority 2013, dated 2018).

On to `Cn1cc(C(=O)N(Cc2ccc(-n3cc(Cl)cn3)cn2)C2CC2)c(C(F)F)n1` [compound 6], for which the “Test A rating (% disease control)” value in the test on Botrytis cinerea (setting [4]) and in the test on Botrytis cinerea (setting [5]) was 0% in each case. Besides, the results for the “Test B rating (% disease control)” value in test [1] (setting [4]) and in test [1] (setting [5]) were 98% and 0%, respectively. Also, the results for the “Test C rating (% disease control)” value in the test with Septoria tritici (setting [4]) and in the test with Septoria tritici (setting [5]) were 67% and 9%, respectively. Further, the results for the “Test D rating (% disease control)” value in test [2] (setting [4]) and in test [2] (setting [5]) were 28% and 0%, respectively. Besides, the results for the “Test E rating (% disease control)” value in test [3] (setting [4]) and in test [3] (setting [5]) were 13% and 0%, respectively.
For the compound `Cn1cc(C(=O)N(Cc2ccc(-n3ccc(-c4ccccc4)n3)cn2)C2CC2)c(C(F)F)n1` [compound 8], the “Test A rating (% disease control)” value with Botrytis cinerea (setting [4]) and with Botrytis cinerea (setting [5]) was 0% in each case. Also, the “Test B rating (% disease control)” value in test [1] (setting [4]) and in test [1] (setting [5]) was 0% each time. For the same compound, the entries for the “Test C rating (% disease control)” value in the test with Septoria tritici (setting [4]) and with Septoria tritici (setting [5]) were 88% and 27%, respectively. Also, the “Test D rating (% disease control)” value stood at 74% in test [2] (setting [4]) and 0% in test [2] (setting [5]). Also, the “Test E rating (% disease control)” value in test [3] (setting [4]) and in test [3] (setting [5]) was 0% each time.
`Cn1cc(C(=O)N(Cc2ccc(-n3ccc(C(F)(F)F)n3)cc2Cl)C2CC2)c(C(F)F)n1` [compound 11]: in the test on Botrytis cinerea (setting [5]), the “Test A rating (% disease control)” value is recorded as 0%. In addition, in test [1] (setting [5]), the “Test B rating (% disease control)” value is given as 89%. In the test with Septoria tritici (setting [5]), the “Test C rating (% disease control)” value was 100%. Further, the “Test D rating (% disease control)” value in test [2] (setting [5]) is 54%. Besides, the “Test E rating (% disease control)” value in test [3] (setting [5]) is 43%.
Taken in the same sequence, the figures for `Cn1cc(C(=O)N(Cc2cc(-n3ccc(C(F)(F)F)n3)ccc2[N+](=O)[O-])C2CC2)c(C(F)F)n1` [compound 13] were 0%, 0%, 0%, 32% and 0%.
For `COc1ccc(-n2ccc(C(F)(F)F)n2)cc1CN(C(=O)c1cn(C)nc1C(F)F)C1CC1` [compound 14], the “Test A rating (% disease control)” value with Botrytis cinerea (setting [5]) came out at 0%. The “Test B rating (% disease control)” value in test [1] (setting [5]) was determined as 42%. In addition, the “Test C rating (% disease control)” value in the test with Septoria tritici (setting [5]) is listed as 83%. For the same compound, in test [2] (setting [5]), the “Test D rating (% disease control)” value was 32%. Besides, the “Test E rating (% disease control)” value in test [3] (setting [5]) is recorded as 92%.
As for `CC(c1ncc(-n2ccc(C(F)(F)F)n2)cc1Cl)N(C(=O)c1cn(C)nc1C(F)F)C1CC1` (centres unmarked) [compound 17], the “Test A rating (% disease control)” value in the test on Botrytis cinerea (setting [5]) is recorded as 0%. For the same compound, in test [1] (setting [5]), the “Test B rating (% disease control)” value was 100%. Further, the “Test C rating (% disease control)” value with Septoria tritici (setting [5]) is on record as 99%. The “Test D rating (% disease control)” value in test [2] (setting [5]) is on record as 23%. In addition, the “Test E rating (% disease control)” value in test [3] (setting [5]) is reported as 92%.
As to `CC(c1ccc(-n2ccc(C(F)(F)F)n2)cc1Cl)N(C(=O)c1cn(C)nc1C(F)F)C1CC1` (centres unmarked) [compound 19], the “Test A rating (% disease control)” value in the test with Botrytis cinerea (setting [5]) is recorded as 0%. Further, the “Test B rating (% disease control)” value in test [1] (setting [5]) is 99%. Moreover, the “Test C rating (% disease control)” value with Septoria tritici (setting [5]) came out at 75%. Further, in test [2] (setting [5]), the “Test D rating (% disease control)” value was found to be 85%. Further, the “Test E rating (% disease control)” value in test [3] (setting [5]) came out at 64%.
The like results for `Cn1cc(C(=O)N(Cc2ccc(-n3cc(Cl)cn3)cc2Cl)C2CC2)c(C(F)F)n1` [compound 20] were, in that order, 32%, 99%, 94%, 79% and 40%.
Taken in the same sequence, the figures for `Cc1ccc(CN(C(=O)c2cn(C)nc2C(F)F)C2CC2)cc1-n1ccc(C(F)(F)F)n1` [compound 27] were 0%, 92%, 38%, 31% and 21%.
`Cc1ccc(-n2ccc(C(F)(F)F)n2)cc1CN(C(=O)c1cn(C)nc1C(F)F)C1CC1` [compound 28]: in the test on Botrytis cinerea (setting [5]), the “Test A rating (% disease control)” value turned out to be 11%. In addition, the “Test B rating (% disease control)” value in test [1] (setting [5]) is listed as 99%. Also, in the test with Septoria tritici (setting [5]), the “Test C rating (% disease control)” value amounted to 45%. Also, the “Test D rating (% disease control)” value in test [2] (setting [5]) amounted to 45%. Also, the “Test E rating (% disease control)” value in test [3] (setting [5]) worked out at 59%.
Take `Cc1cc(-n2ccc(C(F)(F)F)n2)cc(CN(C(=O)c2cn(C)nc2C(F)F)C2CC2)c1F` [compound 29]: in the test with Botrytis cinerea (setting [5]), the “Test A rating (% disease control)” value was 0%. Besides, the “Test B rating (% disease control)” value in test [1] (setting [5]) stood at 94%. Also, the “Test C rating (% disease control)” value in the test on Septoria tritici (setting [5]) came out at 83%. Also, in test [2] (setting [5]), the “Test D rating (% disease control)” value was determined as 68%. The “Test E rating (% disease control)” value in test [3] (setting [5]) amounted to 48%.
Consider `Cn1cc(C(=O)N(Cc2cc(-n3ccc(C(F)(F)F)n3)ccc2Cl)C2CC2)c(C(F)F)n1` [compound 30], for which the “Test A rating (% disease control)” value in the test on Botrytis cinerea (setting [5]) is 0%. Further, the “Test B rating (% disease control)” value in test [1] (setting [5]) was determined as 60%. The “Test C rating (% disease control)” value in the test with Septoria tritici (setting [5]) turned out to be 87%. Also, the “Test D rating (% disease control)” value in test [2] (setting [5]) is reported as 31%. In addition, the “Test E rating (% disease control)” value in test [3] (setting [5]) worked out at 64%.
On to `Cn1nc(C(F)F)c(C(=O)N(Cc2ccc(-n3cc(Br)cn3)cc2Cl)C2CC2)c1Cl` [compound 31], for which the “Test A rating (% disease control)” value with Botrytis cinerea (setting [5]) turned out to be 0%. In addition, the “Test B rating (% disease control)” value in test [1] (setting [5]) is 0%. Besides, the “Test C rating (% disease control)” value in the test with Septoria tritici (setting [5]) is on record as 42%. For the same compound, in test [2] (setting [5]), the “Test D rating (% disease control)” value is listed as 98%. Moreover, the “Test E rating (% disease control)” value in test [3] (setting [5]) is given as 0%.
For the compound `Cn1nc(C(F)F)c(C(=O)N(Cc2ccc(-n3cc(Br)cn3)cc2Cl)C2CC2)c1F` [compound 34], the “Test A rating (% disease control)” value with Botrytis cinerea (setting [5]) is 23%. Also, in test [1] (setting [5]), the “Test B rating (% disease control)” value is given as 100%. For the same compound, the “Test C rating (% disease control)” value in the test on Septoria tritici (setting [5]) is 94%. The “Test D rating (% disease control)” value in test [2] (setting [5]) came out at 100%. In test [3] (setting [5]), the “Test E rating (% disease control)” value is 95%.
Consider `Cn1cc(C(=O)N(Cc2cccc(-n3ccc(C(F)(F)F)n3)c2C(F)(F)F)C2CC2)c(C(F)F)n1` [compound 41], for which the “Test A rating (% disease control)” value with Botrytis cinerea (setting [5]) is 0%. In test [1] (setting [5]), the “Test B rating (% disease control)” value worked out at 0%. The “Test C rating (% disease control)” value in the test on Septoria tritici (setting [5]) is 94%. In addition, the “Test D rating (% disease control)” value in test [2] (setting [5]) is recorded as 23%. Also, the “Test E rating (% disease control)” value in test [3] (setting [5]) is 40%.
In the case of “N-cyclopropyl-3-(difluoromethyl)-1-methyl-N-[[3-[3-(trifluoromethyl)-1H-pyrazol-1-yl]phenyl]methyl]-1H-pyrazole-4-carboxamide [Compound 9]”, the “Test A rating (% disease control)” value in the test on Botrytis cinerea (setting [4]) and with Botrytis cinerea (setting [5]) was 0% throughout. For the same compound, the “Test B rating (% disease control)” value in test [1] (setting [4]) and in test [1] (setting [5]) was 0% throughout. Besides, the entries for the “Test C rating (% disease control)” value with Septoria tritici (setting [4]) and in the test with Septoria tritici (setting [5]) were 96% and 43%, respectively. The “Test D rating (% disease control)” value in test [2] (setting [4]) and in test [2] (setting [5]) was 0% throughout. For the same compound, the “Test E rating (% disease control)” value stood at 43% in test [3] (setting [4]) and 0% in test [3] (setting [5]).
